In patent US7183268B2, “2-amino-9-[(2-hydroxymethyl) cyclopropylidenemethyl] purine antiviral agents” (Wayne State University, priority 2002, dated 2007):
Read-outs that look alike come from different tables or passages of the source.

Legend:
[1] = tested on: HCMV; experiment: HCMV plaque reduction assay in HFF cells; format: cell-based
Procedure: (§1) Cells and viruses. The routine growth and passage of KB cells was performed in monolayer cultures using minimal essential medium (MEM) with either Hanks salts [MEM(H)] or Earle salts [MEM(E)] supplemented with 10% calf serum. The sodium bicarbonate concentration was varied to meet the buffering capacity required. Cultures of diploid human foreskin fibroblasts (HFF) or MRC-5 cells were grown in medium consisting of MEM(E) with 10% fetal bovine serum. Cells were passaged at 1:2 to 1:10 dilutions according to conventional procedures by using 0.05% trypsin plus 0.02% EDTA in a HEPES buffered salt solution (HBS) (Shipman, C., Jr., Proc. Soc. Exp. Biol. 130:305–310 (1969)) as described previously. (Turk, S. R., et al., Antimicrob. Agents Chemother. 31:544–550 (1987). HFF and MRC-5 cells were passaged only at 1:2 dilutions.
(§2) Virological procedures. Stock HCMV was prepared by infecting HFF cells at a multiplicity of infection (m.o.i.) of <0.01 plaque-forming units (p.f.u.) per cell. Cell growth medium was changed every four days until cytopathology was evident in all cells (approximately 21 days). Supernatant fluids were retained as the virus stock. High titer HSV-1 stocks were prepared by infecting KB cells at an m.o.i. of <0.1 as detailed previously. (Turk, S. R., et al., Antimicrob. Agents Chemother. 31:544–550 (1987). Virus titers were determined using monolayer cultures of HFF cells for HCMV and monolayer cultures of BSC-1 cells for HSV-1 as described earlier. (Prichard, M. N. et al., J. Virol. Methods 28:101–106 (1990). Briefly, HFF or BSC-1 cells were planted as described above in 96-well cluster dishes and incubated overnight at 37° C. in a humidified 3% CO2–97% air atmosphere. The next day cultures were inoculated with HCMV or HSV-1 and serially diluted 1:3 across the remaining eleven columns of the 96-well plate. Cultures were incubated at 37° C. for 2 hr to permit virus adsorption and then virus inoculum was replaced with 0.2 mL of fresh medium. Cultures were incubated for seven days for HCMV, two or three days for HSV-1, medium was removed, and the cell sheets were stained with 0.1% crystal violet in 20% methanol. Plaques were enumerated under 20-fold magnification in wells having the dilution which gave 5 to 20 plaques per well. Virus titers were calculated according to the following formula: Titer (p.f.u./mL)=number of plaques×5×3^n; where n represents the nth dilution of the virus used to infect the well in which plaques were enumerated.
Assays for Antiviral Activity. (a) HCMV. The effect of compounds on the replication of HCMV has been measured using a plaque reduction assay. HFF cells in 24-well cluster dishes were infected with approximately 100 p.f.u. of HCMV per cm^2 cell sheet using the procedures detailed above. Following virus adsorption, compounds dissolved in growth medium were added to duplicate wells in three to six selected concentrations. Following incubation at 37° C. for 7 to 10 days, cell sheets were fixed, stained with crystal violet and microscopic plaques enumerated as described above. Drug effects were calculated as a percentage of reduction in number of plaques in the presence of each drug concentration compared to the number observed in the absence of drug. Ganciclovir (GCV) was used as a positive control in all experiments.
(§3) Data Analysis. Dose-response relationships were constructed by linearly regressing the percent inhibition of parameters derived in the preceding sections against log drug concentrations. Fifty-percent inhibitory (IC50) concentrations were calculated from the regression lines. Samples containing positive controls (acyclovir for HSV-1, ganciclovir for HCMV, and 2-acetylpyridine thiosemicarbazone for cytotoxicity) were used in all assays. Results from sets of assays were rejected if inhibition by the positive control deviated from its mean response by >±1.5 standard deviations.

[2] = tested on: HSV-1; experiment: HSV-1 ELISA in BSC-1 cells; format: cell-based
Procedure: as §1, §2
Assays for Antiviral Activity. (b) HSV-1. An enzyme-linked immunosorbent assay (ELISA) was employed to detect HSV-1. 96-well cluster dishes were planted with BSC-1 cells at 10,000 cells per well, in a total volume of 200 μL per well of MEM(E) plus 10% calf serum. After overnight incubation at 37° C., drug and HSV-1 was added at the rate of 100 PFU/well. ELISA plates were blocked with 200 μL per well of 10% calf serum and 0.05% tween in HBS. After incubation for 30 minutes, the blocking agent was rinsed two times with HBS-T. A 1:400 dilution of AP conjugated rabbit anti-HSV-1 antibody in HBS-F was added. Plates were sealed with adhesive sheet, and incubated on rocker for one hour at 37° C. Plates were developed in the dark with 100 μL per well of substrate solution containing p-nitrophenyl phosphate. Plates were read at 492 nm. Drug effects were calculated as a percentage of the reduction in virus in the presence of each drug concentration compared to the titer obtained in the absence of drug. Acyclovir was used as a positive control in all experiments.
as §3, with “Results from sets of assays were rejected if inhibition by the positive control deviated from its mean response by >±1.5 standard deviations.” left out

[3] = tested on: Stationary HFF cells; experiment: Cytotoxicity in stationary HFF cells (microscopic inspection); format: cell-based, human
Procedure: as §1
(§4) Cytotoxicity assays. Two different assays were used to explore cytotoxicity of selected compounds as we have detailed previously. (i) Cytotoxicity produced in stationary HFF cells was determined by microscopic inspection of cells used in plaque assays which were not affected by the virus. (ii) The effect of compounds during two population doublings of KB cells was determined by crystal violet staining and spectrophotometric quantitation of dye eluted from stained cells. (Turk, S. R., et al., Antimicrob. Agents Chemother. 35:1060–1065 (1991).
as §3

[4] = tested on: Growing KB cells; experiment: Cytotoxicity in growing KB cells (crystal violet staining); format: cell-based
Procedure: as §1, §4, §3

Row | SMILES | IC50 [2] | IC50 ([2]; Human alphaherpesvirus 1) | IC50 ([1]; HFF host cells) | IC50 [3] | IC50 [4] | IC50 ([1]; Human betaherpesvirus 5, HFF host cells) | IC50 ([3]; Homo sapiens) | IC50 ([4]; Homo sapiens)
1 | Nc1nc(NCc2ccccc2)c2ncn(/C=C3/C[C@@H]3CO)c2n1 [Compound 10, (Z,S)-(+)-2-Amino-6-benzylamino-9-[(2-hydroxymethyl)cyclopropylidenemethyl]purine] | 25 µM | – | > 100 µM | > 100 µM | > 100 µM | – | – | –
2 | Nc1nc(NCCO)c2ncn(/C=C3/C[C@@H]3CO)c2n1 [Compound 12, (Z,S)-(+)-2-Amino-6-(2-hydroxy)ethylamino-9-[(2-hydroxymethyl)cyclopropylidenemethyl]purine] | > 100 µM | – | 39 µM | > 100 µM | > 100 µM | – | – | –
3 | Nc1nc(O)c2ncn(COC(CO)CO)c2n1 [Ganciclovir, reference compound] | – | – | – | – | – | 4.1 µM | > 100 µM | –
4 | Nc1ncc2ncn(/C=C3/C[C@@H]3CO)c2n1 [Compound 18, (Z,S)-(+)-2-Amino-9-[(2-hydroxymethyl)cyclopropylidenemethyl]purine] | 35 µM | – | > 100 µM | > 100 µM | > 100 µM | – | – | –
5 | CC(C)Nc1nc(N)nc2c1ncn2/C=C1/C[C@@H]1CO [Compound 9, (Z,S)-(+)-2-Amino-6-isopropylamino-9-[(2-hydroxymethyl)-cyclopropylidenemethyl]purine] | 15 µM | – | 3.8 µM | > 100 µM | > 100 µM | – | – | –
6 | CCCCCSc1nc(N)nc2c1ncn2/C=C1/C[C@@H]1CO [Compound 16b, (Z,S)-(+)-2-Amino-6-pentylthio-9-[(2-hydroxymethyl)cyclopropylidenemethyl]purine] | 7 µM | – | 0.32 µM | > 100 µM | > 100 µM | – | – | –
7 | Nc1nc(S)c2ncn(/C=C3/C[C@@H]3CO)c2n1 [Compound 17, (Z,S)-(+)-2-Amino-6-thio-9-[(2-hydroxymethyl)cyclopropylidenemethyl]purine] | > 100 µM | – | 37 µM | > 100 µM | > 100 µM | – | – | –
8 | Nc1nc2c(ncn2COCCO)c(=O)[nH]1 [Acyclovir, reference compound] | – | 0.15 µM | – | – | – | – | – | > 100 µM
9 | Nc1nc(NC2CCCCC2)c2ncn(/C=C3/C[C@@H]3CO)c2n1 [Compound 11, (Z,S)-(+)-2-Amino-6-cyclohexylamino-9-[(2-hydroxymethyl)-cyclopropylidenemethyl]purine] | 15 µM | – | > 100 µM | > 100 µM | > 100 µM | – | – | –

Continued by falling IC50 [2], values first:

Row | IC50 [2] | IC50 ([2]; Human alphaherpesvirus 1) | SMILES | IC50 ([1]; HFF host cells) | IC50 [3] | IC50 [4] | IC50 ([1]; Human betaherpesvirus 5, HFF host cells) | IC50 ([3]; Homo sapiens) | IC50 ([4]; Homo sapiens)
10 | 7 µM | – | CCCCCOc1nc(N)nc2c1ncn2/C=C1/C[C@@H]1CO [Compound 13b, (Z,S)-(+)-2-Amino-6-pentyloxy-9-[(2-hydroxymethyl)cyclopropylidenemethyl]purine] | 0.21 µM | > 100 µM | > 100 µM | – | – | –
11 | 7 µM | – | Nc1nc(OCC2CC2)c2ncn(/C=C3/C[C@@H]3CO)c2n1 [Compound 15, (Z,S)-(+)-2-Amino-6-cyclopropylmethoxy-9-[(2-hydroxymethyl)cyclopropylidenemethyl]purine] | 0.32 µM | > 100 µM | > 100 µM | – | – | –
12 | 6 µM | – | C#CCNc1nc(N)nc2c1ncn2/C=C1/C[C@@H]1CO [Compound 7, (Z,S)-(+)-2-Amino-6-propargylamino-9-[(2-hydroxymethyl)-cyclopropylidenemethyl]purine] | 3.5 µM | > 100 µM | > 100 µM | – | – | –
13 | 4 µM | – | C=CCNc1nc(N)nc2c1ncn2/C=C1/C[C@@H]1CO [Compound 6, (Z,S)-(+)-2-Amino-6-allylamino-9-[(2-hydroxymethyl)cyclopropylidenemethyl]purine] | 1.8 µM | > 100 µM | > 100 µM | – | – | –
14 | 2.5 µM | – | Nc1nc(NCC2CC2)c2ncn(/C=C3/C[C@@H]3CO)c2n1 [Compound 8, (Z,S)-(+)-2-Amino-6-cyclopropylmethylamino-9-[(2-hydroxymethyl)cyclopropylidenemethyl]purine] | 3.8 µM | > 100 µM | > 100 µM | – | – | –
15 | 1.5 µM | – | C=CCOc1nc(N)nc2c1ncn2/C=C1/C[C@@H]1CO [Compound 14, (Z,S)-(+)-2-Amino-6-allyloxy-9-[(2-hydroxymethyl)cyclopropylidenemethyl]purine] | 0.33 µM | > 100 µM | > 100 µM | – | – | –
16 | 1 µM | – | CCCSc1nc(N)nc2c1ncn2/C=C1/C[C@@H]1CO [Compound 16a, (Z,S)-(+)-2-Amino-6-propylthio-9-[(2-hydroxymethyl)cyclopropylidenemethyl]purine] | 0.22 µM | > 100 µM | > 100 µM | – | – | –
17 | 1 µM | – | CCCOc1nc(N)nc2c1ncn2/C=C1/C[C@@H]1CO [Compound 13a, (Z,S)-(+)-2-Amino-6-propoxy-9-[(2-hydroxymethyl)cyclopropylidenemethyl]purine] | 0.26 µM | > 100 µM | > 100 µM | – | – | –
